Values joined by “and” are separate entries in the source; they are usually repeats but may differ in a detail not shown here. Identical values can stand only once. Inconclusive results and toxic doses are left out.
Tested on: L1210 leukemia ip in BDF1 mice, survival T/C
Assay: NCI In Vivo Anticancer Drug Screen. Data for tumor model L1210 Leukemia (intraperitoneal) in B6D2F1 (BDF1) mice
Conditions: endpoint: mean survival time, higher = longer survival
Method in brief: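 Value reflects the ratio of survival in compound-treated mice to survival in vehicle-treated controls, with both groups carrying the same transplanted tumor.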

[1] = dose: 100.0 mg/kg/injection, schedule: Q04DX003 (ip), vehicle: saline
[2] = dose: 200.0 mg/kg/injection, schedule: Q01DX009 (ip), vehicle: other
[3] = dose: 200.0 mg/kg/injection, schedule: Q04DX003 (ip), vehicle: saline
[4] = dose: 400.0 mg/kg/injection, schedule: Q04DX003 (ip), vehicle: saline
[5] = dose: 75.0 mg/kg/injection, schedule: Q01DX001 (ip), vehicle: saline
[6] = dose: 100.0 mg/kg/injection, schedule: Q01DX009 (ip), vehicle: saline with Tween-80
[7] = dose: 100.0 mg/kg/injection, schedule: Q01DX001 (ip), vehicle: saline
[8] = dose: 100.0 mg/kg/injection, schedule: Q04DX003 (ip), vehicle: saline with Tween-80
[9] = dose: 200.0 mg/kg/injection, schedule: Q04DX003 (ip), vehicle: saline with Tween-80
[10] = dose: 400.0 mg/kg/injection, schedule: Q04DX003 (ip), vehicle: saline with Tween-80
[11] = dose: 200.0 mg/kg/injection, schedule: Q01DX001 (ip), vehicle: saline
[12] = dose: 400.0 mg/kg/injection, schedule: Q01DX001 (ip), vehicle: saline
[13] = dose: 100.0 mg/kg/injection, schedule: Q01DX001 (ip), vehicle: carboxymethylcellulose (CMC)
[14] = dose: 200.0 mg/kg/injection, schedule: Q01DX001 (ip), vehicle: carboxymethylcellulose (CMC)

CCOC(=O)/C=C/c1c(OC)cc(OC)cc1OC
T/C (dose: 100.0 mg/kg/injection, schedule: Q01DX009 (ip), vehicle: other): 97 % of control | T/C [1]: 101 % of control | T/C [2]: 106 % of control | T/C [3]: 101 % of control | T/C (dose: 400.0 mg/kg/injection, schedule: Q01DX009 (ip), vehicle: other): 94 % of control | T/C [4]: 93 % of control

C[n+]1ccccc1/C=C/c1ccc2cccc(O)c2n1
T/C (dose: 2.0 mg/kg/injection, schedule: Q01DX015 (ip), vehicle: saline): 95 % of control | T/C (dose: 4.0 mg/kg/injection, schedule: Q01DX015 (ip), vehicle: saline): 95 % of control | T/C (dose: 8.0 mg/kg/injection, schedule: Q01DX015 (ip), vehicle: saline): 94 % of control | T/C (dose: 16.0 mg/kg/injection, schedule: Q01DX015 (ip), vehicle: saline): 101 % of control | T/C (dose: 32.0 mg/kg/injection, schedule: Q01DX015 (ip), vehicle: saline): 97 % of control | T/C [5]: 102 % of control

O=CNc1ccc2c(c1)Cc1cc(Br)ccc1-2
T/C (dose: 50.0 mg/kg/injection, schedule: Q04DX003 (ip), vehicle: Klucel (hydroxypropylcellulose) (HPC)): 97 % of control | T/C (dose: 100.0 mg/kg/injection, schedule: Q04DX003 (ip), vehicle: Klucel (hydroxypropylcellulose) (HPC)): 101 % of control | T/C (dose: 200.0 mg/kg/injection, schedule: Q04DX003 (ip), vehicle: Klucel (hydroxypropylcellulose) (HPC)): 97 % of control

CCCCCC/C=N/Nc1ccc([N+](=O)[O-])cc1[N+](=O)[O-]
T/C (dose: 50.0 mg/kg/injection, schedule: Q01DX009 (ip), vehicle: saline with Tween-80): 101 % of control | T/C [6]: 102 % of control | T/C (dose: 200.0 mg/kg/injection, schedule: Q01DX009 (ip), vehicle: saline with Tween-80): 91 % of control

C[N+]1(CCCNC2=CC(=O)C(NCCC[N+]3(C)CCCCC3)=CC2=O)CCCCC1
T/C (dose: 0.5 mg/kg/injection, schedule: Q01DX001 (ip), vehicle: saline): 105 % of control

CC(C)(C)C1CCC(=N[N+](C)(C)C)CC1 (centres undefined)
T/C [7]: 104 % of control

C(=N\Nc1nn[nH]n1)/c1ccccc1
T/C [6]: 202 % of control | T/C [8]: 95 % of control | T/C [9]: 97 % of control | T/C [10]: 103 % of control

O=C1CC(c2ccccn2)=NN1c1ccccc1
T/C [8]: 98 % of control | T/C [9]: 94 % of control | T/C [10]: 91 % of control

COC(=O)C1C2C(C)=C3CCCCC3(C1C(=O)OC)C(C(=O)OC)C2C(=O)OC (centres undefined)
T/C [7]: 113 % of control | T/C [11]: 95 % of control | T/C [12]: 86 % of control

CCC(=O)O[C@H]1CC[C@H]2[C@@H]3[C@@H](C)CC4=CC(=O)CC[C@]4(C)[C@H]3CC[C@]12C
T/C [6]: 93 % of control | T/C [8]: 90 % of control | T/C [9]: 90 % of control | T/C (dose: 400.0 mg/kg/injection, schedule: Q01DX009 (ip), vehicle: saline with Tween-80): 91 % of control | T/C [10]: 87 % of control

CCOP(=O)(CCCCN1C(=O)c2ccccc2C1=O)OCC
T/C (dose: 31.3 mg/kg/injection, schedule: Q01DX Z (ip), vehicle: saline): 101 % of control | T/C (dose: 62.5 mg/kg/injection, schedule: Q01DX Z (ip), vehicle: saline): 100 % of control | T/C (dose: 125.0 mg/kg/injection, schedule: Q01DX Z (ip), vehicle: saline): 103 % of control | T/C (dose: 250.0 mg/kg/injection, schedule: Q01DX Z (ip), vehicle: saline): 103 % of control | T/C (dose: 500.0 mg/kg/injection, schedule: Q01DX Z (ip), vehicle: saline): 92 % of control

CCOC(=O)C(O)(C(=O)OCC)c1ccccc1
T/C (dose: 100.0 mg/kg/injection, schedule: Q01DX001 (ip), vehicle: other): 97 % of control | T/C (dose: 200.0 mg/kg/injection, schedule: Q01DX001 (ip), vehicle: other): 102 % of control | T/C (dose: 400.0 mg/kg/injection, schedule: Q01DX001 (ip), vehicle: other): 103 % of control

CN=C(NO)c1ccccc1C
T/C [13]: 100 % of control | T/C [14]: 97 % of control

C1Cc2c3c4c(c5c2C(C1)CCC5)CCCC4CCC3
T/C [7]: 97 % of control | T/C [11]: 94 % of control | T/C [12]: 91 % of control

C[C@]12CC[C@H](O)C[C@@H]1CC[C@@H]1[C@@H]2C(=O)C[C@]2(C)C3=CC(=O)O[C@H]3C[C@@H]12
T/C (dose: 5.0 mg/kg/injection, schedule: Q01DX Z (sc), vehicle: steriod suspending solution): 94 % of control and 108 % of control | T/C (dose: 10.0 mg/kg/injection, schedule: Q01DX Z (sc), vehicle: steriod suspending solution): 97 % of control and 100 % of control | T/C (dose: 20.0 mg/kg/injection, schedule: Q01DX Z (sc), vehicle: steriod suspending solution): 94 % of control and 102 % of control | T/C (dose: 40.0 mg/kg/injection, schedule: Q01DX Z (sc), vehicle: steriod suspending solution): 94 % of control and 96 % of control and 100 % of control | T/C (dose: 80.0 mg/kg/injection, schedule: Q01DX Z (sc), vehicle: steriod suspending solution): 104 % of control | T/C (dose: 160.0 mg/kg/injection, schedule: Q01DX Z (sc), vehicle: steriod suspending solution): 95 % of control | T/C (dose: 320.0 mg/kg/injection, schedule: Q01DX Z (sc), vehicle: steriod suspending solution): 95 % of control | T/C (dose: 640.0 mg/kg/injection, schedule: Q01DX015 (sc), vehicle: steriod suspending solution): 100 % of control | T/C (dose: 1280.0 mg/kg/injection, schedule: Q01DX015 (sc), vehicle: steriod suspending solution): 96 % of control

Fc1ccc(NC(=S)SCc2ccc(Cl)cc2)cc1F
T/C [8]: 102 % of control | T/C [9]: 91 % of control | T/C [10]: 102 % of control

O=C(O)C1CCC[N-]C1.O=C(O)C1CCC[N-]C1.O=C(O)C1CCC[N-]C1.O=C(O)C1CCC[N-]C1.[Cl][Rh][Cl] (centres undefined)
T/C (dose: 100.0 mg/kg/injection, schedule: Q01DX009 (ip), vehicle: saline): 104 % of control | T/C [1]: 96 % of control | T/C (dose: 200.0 mg/kg/injection, schedule: Q01DX009 (ip), vehicle: saline): 104 % of control | T/C [3]: 102 % of control | T/C (dose: 400.0 mg/kg/injection, schedule: Q01DX009 (ip), vehicle: saline): 90 % of control | T/C [4]: 96 % of control

O=P(CCCCCCP(=O)(N1CC1)N1CC1)(N1CC1)N1CC1
T/C (dose: 25.0 mg/kg/injection, schedule: Q01DX009 (ip), vehicle: carboxymethylcellulose (CMC)): 112 % of control and 115 % of control | T/C (dose: 50.0 mg/kg/injection, schedule: Q01DX009 (ip), vehicle: carboxymethylcellulose (CMC)): 120 % of control and 121 % of control | T/C [13]: 116 % of control | T/C [14]: 103 % of control | T/C (dose: 200.0 mg/kg/injection, schedule: Q01DX009 (ip), vehicle: carboxymethylcellulose (CMC)): 98 % of control and 101 % of control

N#Cc1nc2c(nc1C#N)CCCC2
T/C (dose: 6.25 mg/kg/injection, schedule: Q04DX003 (ip), vehicle: Klucel (hydroxypropylcellulose) (HPC)): 98 % of control | T/C (dose: 12.5 mg/kg/injection, schedule: Q04DX003 (ip), vehicle: Klucel (hydroxypropylcellulose) (HPC)): 95 % of control | T/C (dose: 25.0 mg/kg/injection, schedule: Q01DX001 (ip), vehicle: Klucel (hydroxypropylcellulose) (HPC)): 96 % of control | T/C (dose: 25.0 mg/kg/injection, schedule: Q04DX003 (ip), vehicle: Klucel (hydroxypropylcellulose) (HPC)): 97 % of control and 102 % of control | T/C (dose: 50.0 mg/kg/injection, schedule: Q01DX001 (ip), vehicle: Klucel (hydroxypropylcellulose) (HPC)): 105 % of control | T/C (dose: 100.0 mg/kg/injection, schedule: Q01DX001 (ip), vehicle: Klucel (hydroxypropylcellulose) (HPC)): 104 % of control

Nc1ccc2c(c1)C(=O)c1cc(N)c(Br)cc1-2
T/C [13]: 93 % of control | T/C [14]: 95 % of control | T/C (dose: 400.0 mg/kg/injection, schedule: Q01DX001 (ip), vehicle: carboxymethylcellulose (CMC)): 98 % of control

CC(=O)Oc1ccc2c(c1)C(=O)CCC=C2
T/C (dose: 50.0 mg/kg/injection, schedule: Q01DX009 (ip), vehicle: other): 92 % of control | T/C [2]: 92 % of control

CSC(=N)N(C)Cc1ccccc1
T/C (dose: 9.37 mg/kg/injection, schedule: Q01DX009 (ip), vehicle: saline): 103 % of control | T/C (dose: 18.75 mg/kg/injection, schedule: Q01DX009 (ip), vehicle: saline): 111 % of control | T/C (dose: 18.75 mg/kg/injection, schedule: Q04DX003 (ip), vehicle: saline): 102 % of control | T/C (dose: 37.5 mg/kg/injection, schedule: Q01DX009 (ip), vehicle: saline): 108 % of control | T/C (dose: 37.5 mg/kg/injection, schedule: Q04DX003 (ip), vehicle: saline): 96 % of control | T/C [5]: 102 % of control | T/C (dose: 75.0 mg/kg/injection, schedule: Q04DX003 (ip), vehicle: saline): 88 % of control

Source: PubChem BioAssay AID248 (DTP/NCI, 2004)
